Measured values reported in PMC10489817, “2-Alkyl-Substituted-4-Amino-Thieno[2,3-d]Pyrimidines: Anti-Proliferative Properties to In Vitro Breast Cancer Models” (Molecules, 2023).
Like-named read-outs stand apart in the source and are kept apart here. Blank lines part the entries; values can stand above or below the compound they belong to.

Tests used:
[1] = test system: A549, HCT116 and MCF-7 cell lines; parameters: method as in doi:10.1016/j.cclet.2014.05.043; conditions: cell line not stated; cited from earlier work
[2] = test system: MDA-MB-435; parameters: method as in PMID 23538397; conditions: cited from earlier work
[3] = in vitro 3T3 NRU test, cytotoxicity; type: cell-based, mouse; conditions: mouse, BALB/3T3 clone A31 cells (mouse embryo fibroblasts)
Experimental: (§1) Compounds 2–5 were studied for cytotoxicity/phototoxicity by an in vitro 3T3 NRU-test. The cell line BALB 3T3, clone A31 (mouse embryo fibroblasts), was incubated with the test compounds at a concentration from 15 to 4000 µg/mL for 24 h at 37 °C, 5% CO2, and 95% humidity. The cytotoxicity and phototoxicity were expressed in percentages relative to the negative control determined. […] Based on the dose–response curves, the CC50/PC50 values (50% cytotoxic/phototoxic concentration) were calculated by nonlinear regression analysis (Table 1). The CC50 values can be used to calculate the PIF (photo-irritancy factor) for each test compound according to the following formula: PIF = CC50/PC50.
(§2) BALB/3T3 cells were cultured in 75 cm^2 tissue culture flasks in DMEM, 10% FBS, 2 mM glutamine, and antibiotics (penicillin 100 U/mL and streptomycin-100 µg/mL) at 37 °C, 5% CO2, and 90% relative humidity. Cytotoxicity/phototoxicity was assessed by a validated BALB/3T3 clone A31 neutral red uptake assay (3T3 NRU test). Briefly, cells were plated in a 96-well microtiter plate at a density of 1 × 10^4 cells/100 µL/well and incubated for 24 h. A wide concentration range was applied for the test compounds. For the phototoxicity tests, 96-well plates were irradiated with a dose of 2.4 J/cm^2, and the cells were incubated for an additional 24 h. After treatment with neutral red medium, washing, and treatment with the ethanol/acetic acid solution, the absorption was measured on a TECAN microplate reader (TECAN, Grödig, Austria) at a wavelength of 540 nm. The light source which we used was a light-emitting diode (LED) matrix—an artificial solar light simulator Helios-iO, model LE-9ND55-H—5500K (SERIC Ltd., Tokyo, Japan).
Cytotoxicity/phototoxicity were expressed as CC50/PC50 values (concentrations required for 50% cytotoxicity/phototoxicity), calculated using non-linear regression analysis (GraphPad Software GraphPad Prism 9.5.1, San Diego, CA, USA). The CC50 values were used to calculate the PIF (photo-irritancy factor) for each test substance, according to the following formula: […]

[4] = test system: BALB 3T3 cells; assay: in vitro 3T3 NRU test, phototoxicity; type: cell-based, mouse; conditions: for IC50: Mus musculus, light or radiation study
Experimental: as §1, §2
Cytotoxicity/phototoxicity were expressed as CC50/PC50 values (concentrations required for 50% cytotoxicity/phototoxicity), calculated using non-linear regression analysis (GraphPad Software GraphPad Prism 9.5.1, San Diego, CA, USA). The CC50 values were used to calculate the PIF (photo-irritancy factor) for each test substance, according to the following formula:
PIF = Cytotoxicity (CC50)/Phototoxicity (PC50)

[5] = test system: MCF-10A; assay: MTT anti-proliferative test, MCF-10A; type: cell-based; conditions: Homo sapiens
From the text: (§3) The MCF-10A cell line (normal human mammary epithelial cells) served as a reference control.
(§4) All breast cell lines (MCF-10A, MCF-7, and MDA-MB-231) were purchased from the American Type Culture Collection—ATCC (Manassas, VA, USA). The MCF-7 and MDA-MB-231 were cultivated in Dulbecco’s modified Eagle’s medium (DMEM) and supplemented with 10% fetal bovine serum (FBS), 1% sodium pyruvate, and 1% MEM non-essential amino acids (NEAA) without antibiotics. The non-tumorigenic breast cell line (MCF-10A) was cultivated in DMEM medium (Sigma-Aldrich, St. Louis, MO, USA) and supplemented with 10% FBS, 1% sodium pyruvate, 1% non-essential amino acids (NEAA), 20 ng/mL human epithelia growth factor (hEGF), 10 μg/mL insulin, and 0.5 μg/mL hydrocortisone without antibiotics. All cell lines were maintained in a humidified atmosphere, with 5% CO2 at 37 °C.
(§5) Using the standard MTT-dye reduction assay described by Mosmann, the anti-proliferative activity was tested. The method is based on the metabolism of the tetrazolium salt MTT to insoluble formazan. The formazan absorption was registered using a microplate reader at λ = 540 nm. The measured absorption is an indicator of cell viability and metabolic activity. Anti-proliferative activities were expressed as IC50 values (concentrations required for 50% inhibition of cell growth), calculated using non-linear regression analysis (GraphPad Software, San Diego, CA, USA).

[6] = test system: MCF-7; assay: MTT anti-proliferative test, MCF-7; type: cell-based, human; conditions: for IC50: Homo sapiens, MCF7, MTT
From the text: as §3, §4, §5

[7] = test system: MDA-MB-231; assay: MTT anti-proliferative test, MDA-MB-231; type: cell-based, human
From the text: as §3, §4, §5

SMILES: Cc1cc2c(OCc3cc(-c4ccc(Cl)cc4)no3)ncnc2s1 [6-methyl-4-{[3-(4-chlorophenyl)-isoxazol-5-yl-]-methoxy}-thieno[2,3-d]pyrimidine]
IC50 [1]: 0.00421 µM

SMILES: Cc1sc2nc(NCc3ccccc3)[nH]c(=O)c2c1C [2-(benzylamino)-5,6-dimethylthieno[2,3-d]pyrimidin-4(3H)-one]
growth percent (GP) [2]: −31.02%

IC50 ([6]; read-out: IC50 MCF-7 (converted)): 45 µM
IC50 ([6]; read-out: IC50 MCF-7 (text)): 13.4 µg/mL
IC50 ([6]; read-out: IC50 of Mean ± SD, Anti-Proliferative Activity MCF-7): 13.4 ± 0.8 µg/mL
IC50 ([7]; Homo sapiens, MDA-MB-231, MTT, read-out: IC50 MDA-MB-231 (converted)): 400 µM
IC50 ([7]; Homo sapiens, MDA-MB-231, MTT, read-out: IC50 of Mean ± SD, Anti-Proliferative Activity MDA-MB-231): 131 ± 3 µg/mL
IC50 ([7]; MTT, read-out: IC50 MDA-MB-231 (converted)): 440 µM
melting point: 163 to 165 °C
SMILES: CCOC(=O)c1sc2nc(CCCl)nc(N)c2c1C [Compound 3, Ethyl 4-Amino-2-(2-Chloroethyl)-5-Methylthieno[2,3-d] Pyrimidine-6-Carboxylate]
IC50 at 24 h ([3]; BALB 3T3, 24 h, NRU, no irradiation (CC50), read-out: IC50 of Mean ± SD, Cytotoxicity): 674 ± 31.8 µg/mL
IC50 at 24 h ([3]; BALB 3T3, value in brackets, read-out: IC50, Cytotoxicity (converted)): 2200 µM
IC50 ([4]; BALB 3T3, irradiated 2.4 J/cm^2 (PC50), read-out: IC50 of Mean ± SD, Phototoxicity): 545 ± 40.1 µg/mL
IC50 ([4]; BALB 3T3, irradiated, value in brackets, read-out: IC50, Phototoxicity (converted)): 1900 µM
PIF (photo-irritancy factor) ([4]; PIF = CC50/PC50, <2 not phototoxic): 1.2
IC50 ([5]; read-out: IC50 MCF-10A (converted)): 100 µM
IC50 ([5]; read-out: IC50 of Mean ± SD, Anti-Proliferative Activity MCF-10A): 45.3 ± 3.5 µg/mL
SI (selective index) MCF-7 ([6]; IC50 MCF-10A/IC50 MCF-7): 3.4
SI (selective index) MDA-MB-231 ([7]; IC50 MCF-10A/IC50 MDA-MB-231): 0.3

SMILES: N.N.[Cl][Pt][Cl] [Cisplatin, reference compound]
selective index in the positive control ([6]; tumor cell line not stated, paragraph on MCF-7): 25
